74 compounds from PubChem BioAssay AID179 (DTP/NCI, 2004) can be followed below.

SMILES strings stand for the structures. The source made the active and inactive calls.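 How the source made its calls: active means compounds giving half or more protection of infected cells from virus-caused growth loss, again on retest; inactive means the rest.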 Where only a bound is given, the exact number is not on record here.

The test system of the experiment is CEM cells HIV-1 protection, formazan growth assay. As to the kind of experiment: NCI AIDS Antiviral Assay. The settings on record: for IC50: measured here: growth of uninfected CEM cells. The essentials:
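Screen of anti-HIV-1 activity in human CEM cells using a formazan-based growth measurement at five drug concentrations. Hits with 50% or greater protection were repeated, and confirmation required reproducible complete protection.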

On to `CC1(C)CNCC2(C)OCCCCCCCCCCOC3(C)CNCC(C)(C)[N-]C(=O)C(C)(CNCC(C)(C)[N-]C3=O)OCCCCCCCCCCOC(C)(CNCC(C)(C)[N-]C2=O)C(=O)[N-]1.[Ni+2].[Ni+2]`, for which the EC50 was > 200 µM.
As for `O=C(/C=C/c1ccc(O)c(O)c1)OC1CC(O)(C(=O)O)CC(O)C1O` (centres undefined) (tested in a mixture with another compound), the EC50 is > 200 µM and the IC50 came to 81.3 µM.
Consider `O=[N+]([O-])C1C2C=CC(C2)[C@H]1c1ccco1` (some centres undefined), for which the result was inactive.
Regarding `CCCCCCCCCCCC(O)S(=O)(=O)O` (centres undefined), the EC50 is > 200 µM and the IC50 turned out to be 102 µM.
As for `Cc1cc2c(C(C)C)c(O)c(O)c(/C=N\O)c2c(O)c1-c1c(C)cc2c(C(C)C)c(O)c(O)c(/C=N/O)c2c1O`, the EC50 is > 200 µM and the IC50 came out at 10 µM.
Regarding `Cn1c(-c2ccccc2)cc(-c2ccc3c(c2)OCO3)c1-c1ccsc1`, the EC50 is > 200 µM and the IC50 was > 200 µM.
For `CN(C)Cc1cc(N=Nc2ccc(Cl)cc2)ccc1OC(=O)c1ccccc1`, the EC50 is > 200 µM and the IC50 amounted to 14.5 µM.
As for `C=C1C(OC)O[C@@H]2O[C@@]3(C)CC[C@H]4[C@H](C)CC[C@@H]1[C@@]24O3` (some centres undefined), the EC50 was > 200 µM and the IC50 was > 200 µM.
For `Cc1nnc(N)s/c1=N/O`, the EC50 is > 200 µM and the IC50 is > 200 µM.
As to `S=c1[nH]c(=S)c2nc(Nc3ccccc3)sc2[nH]1`, the EC50 is > 617 µM and the IC50 was > 617 µM.
`CC[N+](C)(CC)CCCC(C)N1C(=O)C2CCCCC2C1=O` (centres undefined): the EC50 was > 200 µM and the IC50 was > 200 µM.
Regarding `CC1=NN(c2ccccc2)[As]2ON=C(c3ccc(Cl)cc3)C12` (centres undefined), the outcome was inactive.
Take `O=C1c2cn[nH]c2C(c2ccccc2)N1c1ccccc1` (centres undefined): the outcome was inactive.
The same measure, in the same setting: as for `Cc1ccc(S(=O)Cc2ccc(C(=O)O)cc2[N+](=O)[O-])cc1` (centres undefined), the entry is “inactive”; as for `O=C(CC1(O)C(=O)Nc2c(Cl)cc(Cl)cc21)c1ccc(Cl)cc1` (centres undefined), “inactive”.
For `Cc1cc([N+](=O)[O-])c(C)c2c1[nH]c1ccc(/C(CCC3CCCC3)=N\N)cc12`, the EC50 is > 10 µM and the IC50 was > 10 µM.
Turning to `COc1cccc(C=C(C#N)C#N)c1OC`, the EC50 is > 200 µM and the IC50 was > 100 µM.
Take `O=C(O)Cc1ccc(-c2cn3c(n2)sc2ccccc23)cc1`: the EC50 is > 200 µM and the IC50 was > 200 µM.
Regarding `O=C(CNC(=O)c1cnc2ccccc2n1)NCCCNC(=O)CNC(=O)c1cnc2ccccc2n1`, the EC50 is > 100 µM and the 50% inhibitory concentration (IC50) is > 100 µM.
Take `C[C@]12CC[C@@H]3c4cc(OCC(F)(F)F)c(O)cc4CC[C@H]3[C@@H]1CC[C@@H]2O`: the EC50 is > 0.2 µM and the IC50 worked out at 0.0676 µM.
For `O=C(O)CCCCCNC(=O)CCC(CN(CC(=O)OCc1ccccc1)CC(=O)OCc1ccccc1)N(CC(=O)OCc1ccccc1)CC(=O)OCc1ccccc1` (centres undefined), the outcome was inactive.
For the compound `C1=Cc2ccccc2C(c2ccccc2)=NC1`, the EC50 is > 229 µM and the IC50 was 145 µM.
With `CSc1n[nH]c2c1c(C)nn2-c1ccccc1`, the EC50 was > 200 µM and the IC50 turned out to be 95.5 µM.
Take `CC1(/C=C/CCSc2ccccc2)CC(=O)C2CC1C2(C)C` (centres undefined): the EC50 was > 200 µM and the IC50 was found to be 7.94 µM.
For `CCOC(=O)Cc1cc(=O)oc2c3c(cc(OC(C)C)c12)O[C@H](C)[C@@H](C)C3=O`, the EC50 is > 200 µM and the IC50 is 195 µM.
Take `CN1CN(c2ccccc2)C2(CCN(C(=O)OC(C)(C)C)CC2)C1=O`: the EC50 was > 100 µM and the IC50 was > 100 µM.
For `O=C(O)C1(Cc2ccccc2)Cc2ccccc2C1`, the EC50 was > 200 µM and the IC50 is > 200 µM.
Take `Cc1c(Cl)ccc2c1NC(=O)C2(O)CC(=O)c1ccc(Cl)cc1` (centres undefined): the EC50 was > 31.6 µM and the IC50 is > 31.6 µM.
As to `N#CC1=CNc2sccc2S1(=O)=O`, the EC50 was > 200 µM and the IC50 was > 200 µM.
As to `COc1cc(Cc2cnc(N)nc2N)cc(OC)c1OCCCNc1ccc([N+](=O)[O-])cc1`, the result was inactive.
For `Cc1c2ccccc2nc(CSc2ccccc2N)[n+]1[O-]`, the EC50 was 64.6 µM and the IC50 was > 200 µM.
Turning to `Cc1cc(C(=O)N2CCN(Cc3ccccc3)CC2)c(C)o1`, the EC50 was > 741 µM and the IC50 is 324 µM.
Regarding `Cc1cc(Br)ccc1Nc1nc(N)nc(N)c1N=O`, the EC50 is > 200 µM and the IC50 was 51.3 µM.
For the compound `O=C(NCCCNCCNC(=O)c1cc(-c2ccccc2)nc2ccccc12)c1cc(-c2ccccc2)nc2ccccc12`, the EC50 is > 20 µM and the IC50 was 3.02 µM.
`CN1C2CCC1CC(OC(=O)C1CCC(C(=O)OC3CC4CCC(C3)N4C)(c3ccccc3)c3ccccc31)C2` (centres undefined): the EC50 is > 200 µM and the IC50 was found to be 6.46 µM.
For `CC1OC(=O)C2=C1C(=O)CC(C)(C)O2` (centres undefined) the same measures were > 182 µM and 170 µM.
In the case of `CC(=O)Nc1nc2c(=O)c3ccccc3sc2s1`, the result was inactive.
`NC12CCC(N)(c3ccccc31)c1ccccc12`: the EC50 is > 200 µM and the IC50 is > 200 µM.
In the case of `COC(=O)c1ccc(/C=C/S(=O)(=O)c2ccccc2)cc1`, the EC50 is > 4.79 µM and the IC50 was > 4.79 µM.
In the case of `O=C1C=CC(=O)c2nc3c(cc21)CCC3`, the EC50 is > 91.2 µM and the IC50 was 10.5 µM.
For `c1ccc(C2N=C(c3ccccn3)C(c3ccccn3)=NC2c2ccccc2)cc1` (centres undefined) the same measures were > 9.77 µM and > 9.77 µM.
For `N#C/C=C/c1cccc(F)c1` the same measures were > 49 µM and > 49 µM.
With `COc1ccc2c(c1)OCCN(C)OC2c1ccccc1` (centres undefined), the EC50 was > 200 µM and the IC50 is > 200 µM.
For `Cc1ccc(N/C(Sc2ccccc2)=C(/C(Cl)=C(Cl)Cl)[N+](=O)[O-])c(C)c1`, the EC50 is > 200 µM and the IC50 is 27.5 µM.
Turning to `Cc1cnnc2c3ccccc3nn12`, the EC50 is > 123 µM and the IC50 is > 123 µM.
As to `O=C(O)c1oc2cccc3c2c1CCC3`, the result was inactive.
Turning to `CC12CCC(=O)N1c1cnccc1N2` (centres undefined), the EC50 was > 200 µM and the IC50 was > 200 µM.
With `COc1ccc(-c2coc3cc(OC)cc(O)c3c2=O)cc1`, the EC50 is > 200 µM and the IC50 is > 200 µM.
For the compound `CC(=O)NC(CSSCC(NC(C)=O)C(=O)O)C(=O)O` (centres undefined), the EC50 is > 776 µM and the IC50 is > 776 µM.
Consider `O=C(O)C1COCN1C(=O)c1ccccc1SSc1ccccc1C(=O)N1COCC1C(=O)O` (centres undefined), for which the EC50 was > 200 µM and the IC50 was > 200 µM.
For the compound `COc1cc(C(=O)O[C@H]2CCC3CCC2N3C)cc(OC)c1OC` (some centres undefined), the EC50 was > 200 µM and the IC50 is > 200 µM.
Take `CC1(C)COC(Cc2ccccc2)=N1`: the EC50 was > 200 µM and the IC50 is > 200 µM.
Turning to `Fc1ccc2nncc(SCc3ccc(Cl)cc3)c2c1`, the EC50 is > 87.1 µM and the IC50 is > 87.1 µM.
On to `O=C1c2cc([N+](=O)[O-])cc3cc([N+](=O)[O-])cc(c23)C(=O)N1CCNCCN1C(=O)c2cc([N+](=O)[O-])cc3cc([N+](=O)[O-])cc(c23)C1=O`, for which the EC50 was > 29.5 µM and the IC50 worked out at 0.0912 µM.
Consider `CCCN(CCC)CCCOC(=O)c1ccc2oc3ccc(C(=O)OCCCN(CCC)CCC)cc3c2c1`, for which the EC50 was > 112 µM and the IC50 was 6.61 µM.
Turning to `OCC1C(OCc2ccccc2)C(OCc2ccccc2)C(OCc2ccccc2)CN1Cc1ccccc1` (centres undefined), the result was inactive.
On to `NS(=O)(=O)c1ccc(NC(=S)/N=C/c2c(O)c3ccccc3[nH]c2=O)cc1`, for which the EC50 is > 200 µM and the IC50 is > 200 µM.
As for `CCCNC(=O)Cn1c(C)cc2ccccc21`, the EC50 was > 200 µM and the IC50 is > 200 µM.
Turning to `O=C1CCC(c2nc3ccccc3o2)C(=O)N1` (centres undefined), the EC50 was > 1070 µM and the IC50 is > 1070 µM.
With `CC#CCC1CCC(OCC)=CC1=O` (centres undefined), the outcome was inactive.
As to `COc1ccc2cc3[n+](cc2c1OC)CCc1cc(O)c(O)cc1-3`, the result was inactive.
For `CC(=O)N(O)C(C)=O`, the EC50 was > 2140 µM and the IC50 is 1780 µM.
With `CCCCCCC(=O)C/C(CCC(=O)N(Cc1ccccc1)Cc1ccccc1)=N\Nc1ccc([N+](=O)[O-])cc1[N+](=O)[O-]`, the EC50 is > 12.3 µM and the IC50 was > 12.3 µM.
Turning to `COc1c(C(=O)O)oc2c(OC)cccc12`, the outcome was inactive.
For the compound `CCOP(=O)(OCC)/C(C#N)=C/c1ccc(OC)cc1`, the EC50 is > 316 µM and the IC50 is > 316 µM.
As for `O=C(Nc1ccc(C2=NCCN2)c(O)c1)c1ccc(C(=O)Nc2ccc(C3=NCCN3)c(O)c2)cc1`, the EC50 is 95.5 µM and the IC50 was > 200 µM.
Turning to `CSc1nc2[nH]c(=O)n(OS(=O)(=O)c3ccccc3)c(=O)c2n1Cc1ccccc1`, the EC50 was > 200 µM and the concentration for half-maximal inhibition (IC50) was 105 µM.
For `COC(=O)N/N=C(\C)c1sc(-c2nc(C)c(/C(C)=N/NC(=O)OC)s2)nc1C`, in that order: > 32.4 µM and > 32.4 µM.
Take `O=c1cnn2c(n1)sc1ccc3ccccc3c12`: the EC50 was > 50.1 µM and the IC50 was > 50.1 µM.
Consider `Clc1ccc(CCn2cncn2)c(Cl)c1`, for which the EC50 is > 891 µM and the IC50 stood at 437 µM.
As to `CC(C)=C1CCC(C)C/C1=N\NC(N)=S` (centres undefined), the EC50 is > 200 µM and the IC50 turned out to be 19.5 µM.
Take `CCCCCCCCCCCC1=C(O)C(=O)C(CC2=C(O)C(=O)C(CCCCCCCCCCC)=C(O)C2=O)=C(O)C1=O`: the EC50 was > 20 µM and the IC50 is > 20 µM.
For the compound `CCCCCCCCCCCCCCCCCC(=O)OCC(C[As](=O)(O)O)OC(=O)CCCCCCCCCCCCCCCCC` (centres undefined), the EC50 is > 17.8 µM and the IC50 is > 17.8 µM.
`O=S1(=O)c2ccccc2N=C(c2ccccc2Cl)CC1c1ccc(F)cc1` (centres undefined): the EC50 is > 14.8 µM and the half-inhibitory concentration (IC50) amounted to 10.5 µM.
